This passage reports IC50 results from patent US20210380548A1, “Fused [1,2,4]Thiadiazine Derivatives Which Act as KAT Inhibitors of the MYST Family” (CTxT Pty Limited, priority 2017, published 2021).

The target in assay [1] is T1, QKF-KAT6B (Homo sapiens, UniProt Q8WYB5).
T1 construct: purchased SignalChem K315-381BG
Put plainly: Acetyltransferase biochemical assay (AlphaScreen), KAT6B. Conditions: Table 5 (QKF-KAT6B); 0.4 μM Acetyl coenzyme A, histone H3.1, 8 nM enzyme. Background: Alpha assays give light when donor and acceptor beads are brought close together.

The target in assay [2] is T2, MOZ-KAT6A (Homo sapiens, UniProt Q92794, A567V).
T2 construct: encoding amino acid residues 507 to 778 (Uniprot Q92794-1) of human KAT6A; made in house; host or cells: E. coli BL21 DE3
Description: Acetyltransferase biochemical assay (AlphaScreen), KAT6A. The note with it: Table 2 (MOZ-KAT6A); 10 μM Acetyl coenzyme A, histone H3.1, 5 nM enzyme.

The target of assay [3] is T3, TIP60-KAT5 (Homo sapiens, UniProt Q92993).
T3 construct: encoding amino acid residues 2 to 461 (Uniprot Q92993-2) of human KAT5 isoform; made in house; host or cells: E. coli BL21 DE3
Description: Acetyltransferase biochemical assay (AlphaScreen), KAT5. Conditions: Table 1 (TIP60-KAT5); 0.4 μM Acetyl coenzyme A, histone H4, 10 nM enzyme.

T3 sequence (Q92993 2-461 isoform Q92993-2): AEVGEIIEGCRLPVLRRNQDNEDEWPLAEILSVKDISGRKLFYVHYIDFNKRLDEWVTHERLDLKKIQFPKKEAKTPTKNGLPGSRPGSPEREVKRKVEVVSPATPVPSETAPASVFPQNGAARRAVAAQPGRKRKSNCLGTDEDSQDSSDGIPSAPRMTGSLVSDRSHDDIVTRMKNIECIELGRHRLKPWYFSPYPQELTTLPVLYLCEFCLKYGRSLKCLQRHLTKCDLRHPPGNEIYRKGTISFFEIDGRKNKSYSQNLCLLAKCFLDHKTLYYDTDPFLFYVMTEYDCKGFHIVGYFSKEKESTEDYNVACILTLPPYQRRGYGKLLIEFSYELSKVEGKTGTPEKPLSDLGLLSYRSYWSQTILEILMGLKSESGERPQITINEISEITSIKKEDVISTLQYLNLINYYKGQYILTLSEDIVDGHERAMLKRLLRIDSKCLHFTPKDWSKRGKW
T2 sequence (Q92794 507-778 A567V limits assumed): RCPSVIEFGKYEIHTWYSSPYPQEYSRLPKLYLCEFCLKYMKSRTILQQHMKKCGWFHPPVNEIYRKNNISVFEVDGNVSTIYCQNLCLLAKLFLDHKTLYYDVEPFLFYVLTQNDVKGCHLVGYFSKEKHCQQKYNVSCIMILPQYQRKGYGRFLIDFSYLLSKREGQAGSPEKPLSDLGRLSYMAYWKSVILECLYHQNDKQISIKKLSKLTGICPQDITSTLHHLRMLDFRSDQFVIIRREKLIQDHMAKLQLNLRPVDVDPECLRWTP
T1 sequence (Q8WYB5 whole entry): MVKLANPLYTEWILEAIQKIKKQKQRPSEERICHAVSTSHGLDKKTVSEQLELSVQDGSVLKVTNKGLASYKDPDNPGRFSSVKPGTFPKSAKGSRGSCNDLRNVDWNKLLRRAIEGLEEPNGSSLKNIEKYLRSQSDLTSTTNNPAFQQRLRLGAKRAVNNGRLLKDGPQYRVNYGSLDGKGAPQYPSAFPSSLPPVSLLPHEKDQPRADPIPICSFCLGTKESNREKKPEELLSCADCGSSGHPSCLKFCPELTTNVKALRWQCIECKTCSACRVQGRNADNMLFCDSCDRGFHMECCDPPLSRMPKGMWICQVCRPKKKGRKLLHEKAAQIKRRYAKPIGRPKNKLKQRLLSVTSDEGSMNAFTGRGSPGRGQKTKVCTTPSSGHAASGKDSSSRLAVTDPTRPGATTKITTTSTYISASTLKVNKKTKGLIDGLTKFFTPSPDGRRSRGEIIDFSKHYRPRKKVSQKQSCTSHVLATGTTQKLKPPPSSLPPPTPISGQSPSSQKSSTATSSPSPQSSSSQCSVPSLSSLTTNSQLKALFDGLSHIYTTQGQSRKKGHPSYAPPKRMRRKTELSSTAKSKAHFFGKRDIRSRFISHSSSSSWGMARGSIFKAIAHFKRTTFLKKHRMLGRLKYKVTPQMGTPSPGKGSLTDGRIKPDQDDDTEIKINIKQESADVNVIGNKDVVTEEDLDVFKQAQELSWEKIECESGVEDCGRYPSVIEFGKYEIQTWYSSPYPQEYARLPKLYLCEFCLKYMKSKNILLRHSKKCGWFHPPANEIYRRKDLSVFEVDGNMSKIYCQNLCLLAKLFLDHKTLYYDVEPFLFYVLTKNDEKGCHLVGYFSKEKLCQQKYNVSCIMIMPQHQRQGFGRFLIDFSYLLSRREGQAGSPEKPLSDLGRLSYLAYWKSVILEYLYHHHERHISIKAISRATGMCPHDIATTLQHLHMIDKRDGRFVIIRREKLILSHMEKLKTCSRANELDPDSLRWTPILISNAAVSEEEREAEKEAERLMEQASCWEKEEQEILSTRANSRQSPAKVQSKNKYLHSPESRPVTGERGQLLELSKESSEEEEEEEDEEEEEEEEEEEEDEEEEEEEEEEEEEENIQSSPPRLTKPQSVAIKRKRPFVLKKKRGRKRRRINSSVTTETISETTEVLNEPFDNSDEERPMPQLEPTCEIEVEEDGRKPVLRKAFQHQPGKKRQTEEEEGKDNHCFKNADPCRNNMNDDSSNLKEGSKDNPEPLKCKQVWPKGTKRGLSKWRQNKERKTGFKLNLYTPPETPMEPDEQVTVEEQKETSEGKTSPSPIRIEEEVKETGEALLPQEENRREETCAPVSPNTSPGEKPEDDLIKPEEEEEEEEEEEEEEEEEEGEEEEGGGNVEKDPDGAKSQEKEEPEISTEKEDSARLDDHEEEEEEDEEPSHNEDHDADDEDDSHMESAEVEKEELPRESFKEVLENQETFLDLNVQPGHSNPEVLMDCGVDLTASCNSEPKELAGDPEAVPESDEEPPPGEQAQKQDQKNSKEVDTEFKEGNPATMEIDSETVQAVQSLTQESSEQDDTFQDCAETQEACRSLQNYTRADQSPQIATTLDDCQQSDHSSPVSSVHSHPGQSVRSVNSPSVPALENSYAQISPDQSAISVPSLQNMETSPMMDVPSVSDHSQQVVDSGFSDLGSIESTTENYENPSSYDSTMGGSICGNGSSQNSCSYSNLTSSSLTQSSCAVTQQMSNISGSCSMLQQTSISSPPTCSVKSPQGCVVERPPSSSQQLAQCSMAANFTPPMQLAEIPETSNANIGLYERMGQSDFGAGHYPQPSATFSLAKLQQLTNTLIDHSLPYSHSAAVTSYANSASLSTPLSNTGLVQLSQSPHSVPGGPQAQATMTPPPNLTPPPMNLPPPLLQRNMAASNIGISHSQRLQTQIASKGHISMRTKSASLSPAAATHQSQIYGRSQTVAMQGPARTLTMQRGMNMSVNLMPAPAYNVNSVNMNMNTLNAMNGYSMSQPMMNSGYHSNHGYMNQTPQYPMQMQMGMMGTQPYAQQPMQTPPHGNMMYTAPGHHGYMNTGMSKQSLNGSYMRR

Take `Cn1cc(-c2ccc3c(c2)S(=O)(=O)NC(C(=O)NCC(c2ccccc2)c2ccccc2)=N3)cn1` [Example 18, N-(2,2-diphenylethyl)-7-(1-methyl-1H-pyrazol-4-yl)-2H-benzo[e][1,2,4]thiadiazine-3-carboxamide 1,1-dioxide]: the IC50 in assay [1] is 0.268 µM; in assay [2], 3.12 µM; in assay [3] it was over 125 µM.

One may read the IC50 as the point on the concentration scale where inhibition reaches its midpoint. High values mean lower potency, low ones higher potency.
